The values that follow come from patent US20100112030A1, “ROLE OF HEDGEHOG SIGNALING IN ATHEROSCLEROSIS AND CARDIOVASCULAR DISEASE” (The Regents of the University of California, priority 2007, published 2010).

Holding throughout (assay type): cell-based
Experiment [1] deals with Ptch and Gli1 expression in human aortic smooth muscle cells (HASMC). The experiment can be described thus: Hh target gene (Ptch, Gli1) mRNA expression in HASMC by Q-RT-PCR. The following applies: 48 hours of treatment. As for the experimental part:
(§1) Treatment of HASMC with Shh was examined to determine if Shh induces the expression of target genes, Ptch and Gli. […] This difference may be cell-type specific or may be due to heterogeneity in vascular smooth muscle cell populations and their differentiation state. Ptch and Gli1 mRNA expression was induced when using 3 μg/ml of rmShh after 48 hours of treatment (1.6 fold and 1.8 fold, respectively, compared to control vehicle-treated cells as assessed by Q-RT-PCR analysis). This is consistent with studies in which 3.5 μg/ml of Shh was used to activate rat vascular SMC. It is likely that local Shh concentrations may reach very high levels in the microenvironment of the vessel wall, since, as described herein, substantial immunostaining for Shh in atherosclerotic lesions was observed. Cells within the atherosclerotic lesion may also become more susceptible to Shh over time due to the inflammatory insults associated with that environment. […] Dose response and time course experiments can determine the extent and kinetics of Hh target gene expression in aortic SMC, as well as in other vascular cells, using techniques known to a person of ordinary skill.

In experiment [2] the test system is Gli1 expression in mouse aortic smooth muscle cells (MASMC). The experiment can be described thus: Hh target gene (Gli1) expression in MASMC. To be noted: 48 hours of treatment. As for the experimental part: as §1
The test system of experiment [3] is pluripotent mesenchymal cells derived from the bone marrow. The experiment in a line: Oxysterol-induced osteoblastic differentiation of pluripotent mesenchymal cells. To be noted: hedgehog pathway inhibitor added to oxysterol-treated cells. The source says:
These mesenchymal cells, which serve as osteoprogenitors during skeletal development and bone remodeling, are induced to undergo osteoblastic differentiation when treated with osteoinductive oxysterols.

Take `CC(C)CCC[C@](C)(O)[C@H]1CC[C@H]2[C@@H]3CC=C4C[C@@H](O)CC[C@]4(C)[C@H]3CC[C@@]21C` [20(S)-hydroxycholesterol]: the “increase in Gli1 expression” value in experiment [1] and in experiment [2] was 2 fold each time.
`CC1=C2C[C@H]3[C@@H](CC=C4C[C@@H](O)CC[C@@]43C)[C@@H]2CC[C@]12O[C@@H]1C[C@H](C)CN[C@H]1[C@H]2C` [cyclopamine]: the “oxysterol-induced osteoblastic differentiation of cells” value in experiment [3] is given as “completely inhibited”.
